Measurements reported in patent US11370775B2, “Substituted benzimidazole derivatives as D-amino acid oxidase (DAAO) inhibitors” (NATIONAL TAIWAN UNIVERSITY, priority 2016, dated 2022).

How the values were obtained:
Format in all cases: in vivo
[1] = test system: MK-801-induced PPI deficit in C57BL/6 mice; test: Prepulse inhibition, MK-801-induced PPI deficit; details: MK-801 0.2 mg/kg i.p.
Excerpt: (§1) The NMDA-receptor antagonist MK-801-induced negative or cognitive deficits in C57BL/6 mice were in a well-established drug-induced schizophrenia mouse model and as a useful pharmacological animal model to identify if the RS-D7, its analog and its prodrug improve the symptoms through the NMDA receptor.
(§2) All wild-type (WT) mice used in this study were backcrossed onto a C57BL/6J background from the Laboratory Animal Center of National Taiwan University Hospital, and all behavioral examinations were conducted in WT mice. For acclimatizing to laboratory conditions, the mice were allowed free access to food and water and were housed in groups with a 12 hours light-dark cycle in a temperature and humidity controlled room of the Psychology Department, National Taiwan University. All animals within the age of 3 months were housed individually one week before experiment testing with food and water available ad libitum. In the beginning of the experiments, the mice were handled and weighted daily at least 1 week before the behavioral experiments. The entire animal procedures were performed according to protocols approved by the Animal Care and Use Committee established by the National Taiwan University.
(§3) MK-801 was dissolved in saline and administered at a volume of 0.01 ml/g body weight. RS-D7, Drug 12083 (analog of RS-D7) and was freshly dissolved in 1% CMC to the concentration of 2 mg/ml before usage. Prodrug 28095 was freshly dissolved in NMP:HP-beta-CD:H2O (5:25:70) to the concentration of 2 mg/ml before usage. All animals were given vehicle (saline) or MK-801 (0.2 mg/kg, i.p.) 25 minutes before the behavioral experiments. Both vehicle (1% CMC or NMP:HP-beta-CD:H2O) and experimental groups (RS-D7, Drug 12083 or Prodrug 28095) were treated after 5 minutes MK-801 administration with the appropriate dose via P.O. injections (at a volume of 0.01 ml/g body weight).
(§4) For investigating the treatment effect of RS-D7 for negative and cognitive symptoms, a series of three behavioral tests (run from the first to the third week), which included open field, sucrose preference test and prepulse inhibition were performed in sequence with a 1-week interval between tests.
To assess the sensorimotor gating function, each mouse was tested with the SR-LAB startle apparatus (San Diego Instruments, San Diego, Calif., USA). The background noise was 72 dB during testing. Each session was initiated with a 5 minutes acclimatization period followed by 64 trials, consisting of pulse-alone (P-alone) trials, prepulse pulse (pp+P) trials, and no stimulation (nostim) trials. A P-alone trial was a 120 dB white noise burst of 40 msec. In the pp+P trials, the 120 dB pulse was preceded (by 100 msec) by a 20 msec of white noise prepulse burst of 78 dB (PP6), 82 dB (PP10), or 90 dB (PP18). The nostim trials consisted of background noise only. The session began and ended with a block of six presentations of the P-alone trial. Between these two blocks, the rest of the 52 trials were performed pseudorandomly and separated by intertrial intervals of 15 sec on average (varying between 10 and 20 sec). PPI was calculated as a percentage of the startle response using the formula: % PPI=100× [(P-alone score)-(pp+P score)]/(pulse-alone score), where the pulse-alone score was the average of the pulse-alone values from the in-between block of 52 trials.

[2] = test system: MK-801-induced anhedonia in C57BL/6 mice; test: Sucrose preference test, MK-801-induced anhedonia
Excerpt: as §1, §2, §3, §4
To assess the anhedonia, one of the negative symptoms of schizophrenia, all mice underwent 4-day testing. In the beginning of the sucrose preference, all mice were deprived of water for 23 hours in all the experiment from one day before the first day. On the first day, each mouse was given free access to 2 identical bottles with water for 1 hour. Then, the 2 identical bottles were replaced that one filled with 1% (wt/vol) sucrose solution and the other with water on the second day. On the third and fourth day, each mouse was received MK-801 and RS-D7 treatment before the experiment, and also free accessed to bottles for 1 hour. After the experiment, the 2 bottles were weighted to measure the 1-hour consumption of sucrose solution and water. The sucrose preference percentage (SPP) was calculated using the following formula: % SPP=sucrose solution consumption (g)×100%/[water consumption (g)+sucrose solution consumption (g)].

[3] = test system: MK-801-induced hyperlocomotion in C57BL/6 mice; test: Open field, MK-801-induced hyperlocomotion
Excerpt: as §1, §2, §3, §4
To assess spontaneous locomotor activity, each subject was placed into the center of an open-field apparatus (25.40*25.40*40.64 cm^3, Coulbourn Instruments, Whitehall, Pa., USA) under dim lighting condition (60 lx). Motor activity parameters (including total travel distance and travel distance per 10 minutes) were monitored and recorded over a 60 minutes period by using Smart video tracking software (Panlab, Harvard apparatus, US). For comparing the treatment effects of different treatment groups, the percentage change of rescue effect on MK-801-induced hyperlocomotion was calculated using the following formula: %=(rescue effect of drug−MK-801 effect)×100%/MK-801 effect.

**Q.** What does the source list for COc1c(C)cnc(C[S+]([O-])c2nc3cc(OC(=O)CC(C)CC(C)(C)C)ccc3[nH]2)c1C (stereo not drawn) [compound 28095, 2-(((4-methoxy-3,5-dimethylpyridin-2-yl)methyl)sulfinyl)-1H-benzo[d]imidazol-5-yl 3,5,5-trimethylhexanoate]?
**A.** Effect on MK-801 induced PPI deficit ([1]; 100 mg/kg P.O.): significantly alleviated MK-801 induced PPI deficit; Effect on MK-801 induced PPI deficit ([1]; 200 mg/kg P.O.): significantly alleviated MK-801 induced PPI deficit; Effect on MK-801 induced anhedonia (sucrose preference) ([2]; 200 mg/kg P.O., MK-801 0.2 mg/kg i.p., mice): normalized MK-801 induced anhedonia; Effect on anhedonia after acute MK-801 injection (FIG. 2) ([2]; different dosages): rescue the anhedonia after acute MK-801 injection; Effect on MK-801 induced hyperlocomotion (open field) ([3]; 100 mg/kg P.O., MK-801 0.2 mg/kg i.p., mice): alleviated MK-801 induced hyperlocomotion; Effect on MK-801-induced hyperlocomotion (FIG. 1) ([3]; different dosages, compared to the MK-801 group): can rescue the MK-801-induced hyperlocomotion
